Measured values from US8338475B2, “Anti-proliferative pharmaceutical composition” (BioCis Pharma Oy, priority 2003, dated 2012).
Several values for one entry are separate records, joined by “and”; a condition that tells them apart may be missing. Identical values can stand only once.

What was measured:
[1] = test system: A2058 human cutaneous melanoma tumours; assay: Tumour growth in SCID/SCID mice in vivo; details: 16-day treatment, 1 μM CPT, pH 6.5
Experimental: All injection solutions were adjusted to pH 6.5. The data points have been normalised to unity tumour size at day 0. Data from five mice in each group is included (mean, SD).
The A2058 human cutaneous melanoma cells were cultured under normal cell culture conditions prior to injection into mice. Two million A2058 cells were injected s.c. into the neck of SCID/SCID mice (Charles River Laboratories, Germany). Tumours were allowed to develop for two weeks to the size of a small pearl before the treatments. The mice were divided into four groups of six animals, each containing three males and three females. Each tumour was first injected 50 μl of one of the test solutions (A: PBS; B: 30 mM cis-UCA; C: 1 μM CPT; D: 30 mM cis-UCA+1 μM CPT) three times a week (Mon-Wed-Fri). After day 7 from the beginning of injections, the injection volume was increased to 150 μl injected into three different sides of the tumour. Tumour length and width were measured with a caliper three times a week before each injection. Tumour planar area was calculated as length×width. The tumour growth inhibition efficiency I of the treatments was calculated according to Equation 1:
[formula] where Sr represents the normalised relative size of the tumour in the control group (A) or any of the treatment groups (T), and d0 to d16 are the (eight) measuring time points during the 16-day treatment period.
(§1) After 16 days from the first injection, all the animals were sacrificed with CO2, and the tumours were collected and fixed in formalin for further studies. In groups A, C, and D, one mouse was sacrificed before the end of the experiment because of poor development of the tumour (no measurable tumour at day 0). One animal in group B was sacrificed prematurely after it had severly scratched the tumour. Data from these animals were not included in the calculation of the tumour size results. All the removed animals were female mice. Immunohistochemical data was obtained also from the removed mice except from group B. The experiments were conducted under a protocol approved by the local ethics committee.

A2058 tumours = assay: Haematoxylin/eosin staining of tumour sections (necrosis); format: in vivo, SCID/SCID mice; details: tumours collected after 16 days; 30 mM cis-UCA, 1 μM CPT intratumoural
Source text: as §1
(§2) Paraffin sections of the tumours were stained with haematoxylin/eosin following standard procedures for an overall picture. Ki67 was stained to detect the amount of proliferating cells. The staining procedure for the Ki67 primary antibody (Dako, Klostrup, Denmark) at 1:50 dilution and secondary antibody (StreptABComplex/HRP Duet Mouse/Rabbit, Dako) at 1:100 dilution followed the instructions provided by the manufacturer. Two sections from each tumour was examined.

[2] = test system: HK293 (kidney epithelial cells); assay: Proliferation assay (CellTiter 96), HK293 cells; format: cell-based, human; details: Homo sapiens, Epithelial cell, pH 6.5, 44 h, cis-UCA 10 mM, CPT 2 μM, 15,000 cells per 100 μl, read-out: Inhibition of proliferation (mean percentage inhibition ± SD compared with untreated control)
Source text: (§3) Transformed tumour cell lines WM 266-4 and A2058 (cutaneous melanoma), HT-1080 (epithelial fibrosarcoma), HeLa (epithelial adenocarcinoma of cervix), HK293 (kidney epithelial cells) and non-transformed cell line HSF (skin fibroblast from a healthy volunteer donor) of human origin have been described earlier (Li et al. 2003). The K562 (chronic myelogenous leukemia) cells were purchased from American Type Culture Collection.
(§4) The cells were maintained in logarithmic growth phase in IMDM medium (Invitrogen, Paisley, UK) supplemented with 10% fetal calf serum and antibiotics in a humidified incubator at +37° C., 5% CO2. The adherent cells lines were harvested for experiments with 0.25% trypsin-EDTA in PBS for 5 min and then resuspended and washed in medium. After counting of viable cells, 15,000 to 75,000 cells were transferred into flat-bottom 96-well cell culture plates in a volume of 100 or 150 μl.
(§5) The proliferation activity of cultured cell lines was quantified in flat-bottom 96-well plates with a modified colorimetric assay based on a tetrazolium derivative (CellTiter 96 Aqueous One Solution Cell Proliferation Assay, Promega). The cells were cultured in the presence of camptothecin and/or cis-UCA for 20 to 92 h, then the proliferation reagent was added for 2 h, and the absorbance at 490 nm was measured in a plate reader. […]

[3] = test system: A2058 (cutaneous melanoma); assay: Proliferation assay (CellTiter 96), A2058 cells; format: cell-based, human; details: Homo sapiens, pH 6.5, 44 h, cis-UCA 10 mM, CPT 2 μM, 15,000 cells per 100 μl, read-out: Inhibition of proliferation (mean percentage inhibition ± SD compared with untreated control)
Experimental: (§6) The cells were cultured in triplicate with or without 2 μM camptothecin (CPT) or 10 mM cis-UCA in a density of 15,000 cells per […]. A, Cells taken from normal pH 7.4 cultures to test conditions at pH 6.5. B, Cells cultured in low pH 6.7 adaptation medium for 3 d, then tested at pH 6.5. C, Cells cultured and tested at pH 7.4.
Proliferation was measured in a 44-h assay at pH 6.5 with 30 μM to 30 mM cis-UCA and 2 μM camptothecin. Both proliferation (A) and calculated percentage inhibition data (B) are presented.
as §3, §4
(§7) The proliferation activity of cultured cell lines was quantified in flat-bottom 96-well plates with a modified colorimetric assay based on a tetrazolium derivative (CellTiter 96 Aqueous One Solution Cell Proliferation Assay, Promega). The cells were cultured in the presence of camptothecin and/or cis-UCA for 20 to 92 h, then the proliferation reagent was added for 2 h, and the absorbance at 490 nm was measured in a plate reader. Blank absorption values in wells containing medium without cells were subtracted before comparison analysis.
(§8) The cell lines were tested in a 44-h culture at pH 6.5 with or without 2 μM camptothecin and 10 mM cis-UCA at 15,000 cells per 100 μl total volume. […] In order to further characterise the effective anti-proliferative concentration range of cis-UCA, proliferation was measured in a 44-h assay at pH 6.5 with cis-UCA concentration ranging from 30 μM to 30 mM.

[4] = test system: K562 (chronic myelogenous leukemia); assay: Proliferation assay (CellTiter 96), K562 cells; format: cell-based, human; details: Homo sapiens, pH 6.5, 44 h, cis-UCA 10 mM, CPT 2 μM, 15,000 cells per 100 μl, read-out: Inhibition of proliferation (mean percentage inhibition ± SD compared with untreated control)
Source text: as §3, §4, §5

[5] = test system: HT-1080 (epithelial fibrosarcoma); assay: Proliferation assay (CellTiter 96), HT-1080 cells; format: cell-based, human; details: Homo sapiens, pH 6.5, 44 h, cis-UCA 10 mM, CPT 2 μM, 15,000 cells per 100 μl, read-out: Inhibition of proliferation (mean percentage inhibition ± SD compared with untreated control)
Source text: as §3, §4, §5

HSF (skin fibroblast) = assay: Proliferation assay (CellTiter 96), HSF cells; format: cell-based, human; details: Homo sapiens, Skin fibroblast, pH 6.5, 44 h, cis-UCA 10 mM, CPT 2 μM, 15,000 cells per 100 μl, read-out: Inhibition of proliferation (mean percentage inhibition ± SD compared with untreated control)
Source text: as §3, §4, §5

[6] = test system: Ki67 (proliferating cells) in A2058 tumours; assay: Immunohistochemistry of tumours, Ki67 staining; format: in vivo, SCID/SCID mice; details: tumours collected after 16 days; 30 mM cis-UCA, 1 μM CPT intratumoural
Source text: as §1, §2

[7] = test system: HeLa (epithelial adenocarcinoma of cervix); assay: Proliferation assay (CellTiter 96), HeLa cells; format: cell-based, human; details: Homo sapiens, pH 6.5, 44 h, cis-UCA 10 mM, CPT 2 μM, 15,000 cells per 100 μl, read-out: Inhibition of proliferation (mean percentage inhibition ± SD compared with untreated control)
Source text: as §3, §4, §5

cell lines = assay: Proliferation assay, statements on the cell lines as a group; format: cell-based, human; details: camptothecin 2 μM; 44 h; pH 6.5 or 7.4 (FIG. 1)
Experimental: The cells were cultured for 44 h with or without 2 μM camptothecin (CPT) at pH 6.5 or 7.4 conditions. After a 2-h incubation with the proliferation assay reagent, the absorbance at 490 nm was recorded. Cells were cultured in a density of 15,000 cells (K562, HT-1080, HK293) or 75,000 cells (the other cells) in a volume of 150 μl.
Three cell lines were cultured with cis-UCA and/or 1 μM camptothecin at a density of […] per well (100 μl) for 44 h in pH 6.5 medium. Blank wells with all the cis-UCA concentrations but without cells were included and their absorbance subtracted from those of the corresponding test wells.
as §3, with “The K562 (chronic myelogenous leukemia) cells were purchased from American Type Culture Collection.” left out
as §5

[8] = test system: WM 266-4 (cutaneous melanoma); assay: Proliferation assay (CellTiter 96), WM266-4 cells; format: cell-based, human; details: Homo sapiens, WM 266-4, pH 6.5, 44 h, cis-UCA 10 mM, CPT 2 μM, 15,000 cells per 100 μl, read-out: Inhibition of proliferation (mean percentage inhibition ± SD compared with untreated control)
Experimental: as §6, §3, §4, §7, §8

[9] = test system: human polymorphonuclear neutrophils; details: extracellular pH range 6.1 to 7.0; patent application US2006035973; cited from earlier work

**Q.** Which results are given for `CC[C@@]1(O)C(=O)OCc2c1cc1n(c2=O)Cc2cc3ccccc3nc2-1` [CPT, Camptothecin, reference compound]?
**A.** mean tumour area relative to the initial size at day 0 ([1]; intratumoural injection three times a week, 30 mM cis-UCA): about four; Growth suppression, female ([1]; female mice, intratumoural 30 mM cis-UCA): 90.3%; Growth suppression, male ([1]; male mice, intratumoural 30 mM cis-UCA): 44.7%; Necrosis (histological sections with haematoxylin/eosin staining) (A2058 tumours): Dead cells and large necrotic areas were detected and yes; inhibition at 2 µM [2]: 56 ± 1%; inhibition at 2 µM [3]: 84 ± 3.3%; inhibition at 2 µM [4]: 77 ± 3.3%; inhibition at 2 µM [5]: 71 ± 1.7%; inhibition at 2 µM (HSF (skin fibroblast)): 37 ± 0.4%; Ki67+ (number of positive tumours/total analysed) [6]: three out of six tumours and 3/6; inhibition at 2 µM [7]: 78 ± 1.6%; anti-proliferative effect in all cell line cultures (cell lines): inhibited the proliferation in all cell line cultures and showed more efficient inhibition at pH 6.5; inhibition at 2 µM [8]: 81 ± 1.1%

**Q.** Which “effect on the intracellular pH of neutrophils” value [9] does the source give for `O=C(O)C=Cc1c[nH]cn1` [trans-UCA, 3-(1H-imidazol-4-yl)-2-propenoic acid, reference compound] here?
**A.** Its value is “not trans-UCA affected the intracellular pH”.
